Data published in the NIST ThermoML archive (doi:10.1016/j.fluid.2010.01.026).
Numbers after ± are expanded uncertainties.

Settings: 293.15 K; 101.33 kPa; Liquid; Vibrating tube method

mass density: 1234.55 ± 8.3 kg/m3
Compound: CCCCCCCC[n+]1ccn(C)c1.F[P-](F)(F)(F)(F)F [1-octyl-3-methylimidazolium hexafluorophosphate]
